Test results as given in US6960584B2 (Merck & Co., Inc., priority 2001, dated 2005).

Experiments:
Assay type in all cases: biochemical
PKC (mix of isoforms) = test: PKC assay (counter screen); settings: myelin basic protein substrate; read-out: Counter screens IC50 (μM) PKC
Experimental: Final assay concentrations were as follows: 0.25 mM EGTA, 0.4 mM CaCl, 20 mM Tris pH 7.5, 10 mM MgCl, 1 mM 2-mercaptoethanol, 0.32 mg/ml phosphatidylserine, 0.032 mg/ml diacylglycerol, 10 μM ^33P-ATP, 70 μg/ml MBP, 10 ng/ml PKC, 0.1 mg/ml BSA.
Assays are performed using 96 deep well assay plates. In each assay well 10 μl of solvent control or appropriate inhibitor dilution with 5 μl ^33P-ATP (components #5 and #3) were premixed. In a separate tube, a mixture containing equal volumes of components #1, #2, #4, and #6 was prepared. The assay reaction was initiated by adding 35 μl of the components #1, #2, #4, and #6 mixture to wells containing ^33P-ATP and inhibitor. The liquid in the assay wells was thoroughly mixed and the assay reactions incubated for 20 minutes at room temperature. The reactions were stopped by adding 100 mM EDTA (50 μl) and 100 mM sodium pyrophosphate (50 μl) and mixing. Phosphorylated MBP was collected on PVDF membranes in 96 well filter plates and quantitated by scintillation counting.

delta PH-Akt1 = molecular target: T1, delta PH-Akt1 (Homo sapiens, UniProt P31749); test: Akt kinase assay, phosphorylation of GSK3-derived peptide
T1 construct: PCR deletion mutagenesis was done using the full length Akt1 gene in the pS2neo vector as template; biotin tag (from pS2neo vector); made in house; host or cells: Drosophila S2 cells
Experimental: For the expression of a pleckstrin homology domain (PH) deleted (Δ aa 4-129, which includes deletion of a portion of the Akt1 hinge region) version of Akt1, PCR deletion mutagenesis was done using the full length Akt1 gene in the pS2neo vector as template. The PCR was carried out in 2 steps using overlapping internal primers (5′[…]Δ[…] 3′ (SEQ.ID.NO.: 6), and 5′[…]Δ[…] TATTC 3′ (SEQ.ID.NO.: 7)) which encompassed the deletion and 5′ and 3′ flanking primers which encompassed the KpnI site and middle T tag on the 5′ end. The final PCR product was digested with KpnI and SmaI and ligated into the pS2neo full length Akt1 KpnI/Sma I cut vector, effectively replacing the 5′ end of the clone with the deleted version.
This procedure describes a kinase assay which measures phosphorylation of a biotinylated GSK3-derived peptide by human recombinant active Akt/PBK isoforms or Akt/PBK mutants. The ^33P-labeled biotinylated product can be captured and detected using Streptavidin coated Flashplates (NEN LifeSciences) or Streptavidin Membrane Filter Plates (Promega). Alternatively, a GSK3-derived peptide with 2 added lysine residues was used as the substrate and subsequently captured using Phosphocellulose Membrane Filter Plates (Polyfiltronics). […]
(§1) The plates were covered with sealing tape and counted using the Packard TopCount with the appropriate settings for counting [^33P] in Flashplates. […]

Akt2 = molecular target: T2, Akt2 (Homo sapiens, UniProt P31751); test: as above
T2 construct: a middle T tag was added to the 5′ end of the full length Akt2 using the PCR primer; biotin tag (from pS2neo vector); made in house; host or cells: Drosophila S2 cells
From the text: (§2) This procedure describes a kinase assay which measures phosphorylation of a biotinylated GSK3-derived peptide by human recombinant active Akt/PBK isoforms or Akt/PBK mutants. The ^33P-labeled biotinylated product can be captured and detected using Streptavidin coated Flashplates (NEN LifeSciences) or Streptavidin Membrane Filter Plates (Promega). Alternatively, a GSK3-derived peptide with 2 added lysine residues was used as the substrate and subsequently captured using Phosphocellulose Membrane Filter Plates (Polyfiltronics).
(§3) Active human Akt: The following active human Akt isoforms were utilized in the in vitro assays: active human Akt1 (obtained from Upstate Biotechnology, catalog no. 14-276, 15 μg/37 μl (6.76 μM)) or recombinant lipid activated Akt1 (prepared as described in Example 5); Akt2 (prepared as described in Example 5); Akt3 (prepared as described in Example 5); and delta PH-Akt1 (prepared as described in Example 5).
(§4) Akt specific peptide substrate: GSK3α (S21) Peptide #3928, biotin-[…] (SEQ.ID.NO.: 15), FW=1517.8 (obtained from Macromolecular Resources) for Streptavidin Flashplate or Streptavidin Filter Plate detection.
(§5) GSK3α (S21) Peptide #G80613, […] (SEQ.ID.NO.: 14), FW=1547.8 (obtained from Research Genetics) for Phosphocellulose filter plate detection.
(§6) • B. Active Akt (500 nM): Diluent (1× Assay buffer, 10% glycerol, 0.1% β-mercaptoethanol, 1.0 μM microcystin LR and 1.0 mM EDTA) was added to a vial containing 37 μl of active Akt isoform (6.76 μM). Aliquots were flash frozen in liquid N2 and stored at −70° C. • C. […] Procedure for Streptavidin Flash Plate Assay: Step 1: […]
as §1
(§7) The bottom of the plate was sealed with white backing tape, 30 μl/well of Microscint 20 (Packard Instruments, catalog no. 6013621) was added. The top of the plate was sealed with clear sealing tape, and the plate then counted using the Packard TopCount with the appropriate settings for [^33P] with liquid scintillant. […]

Akt3 = molecular target: T3, Akt3 (Homo sapiens, UniProt Q9Y243); test: as above
T3 construct: a middle T tag was added to the 5′ end of the full length Akt3 clone using the PCR primer; biotin tag (from pS2neo vector); made in house; host or cells: Drosophila S2 cells
From the text: as §2, §3, §4, §5, §6, §1, §7

active human Akt1 = molecular target: T4, active human Akt1 (Homo sapiens, UniProt P31749); test: as above; settings: GSK3 peptide substrate; read-out: GSK3 Peptide Substrate IC50 (μM) Akt-1
T4 construct: purchased Upstate Biotechnology 14-276
From the text: as §2, §3, §4, §5, §6, §1, §7

PKA catalytic subunit = molecular target: T5, PKA catalytic subunit (Bos taurus, UniProt P00517); test: PKA assay (counter screen)
T5 construct: purchased UBI (Upstate Biotechnology) 14-114
Experimental: Each individual PKA assay consists of the following components: • 1) 10 μl 5×PKA assay buffer (200 mM Tris pH7.5, 100 mM MgCl2, 5 mM 2-mercaptoethanol, 0.5 mM EDTA) • 2) 10 μl of a 50 μM stock of Kemptide (Sigma) diluted into water • 3) 10 μl ^33P-ATP (prepared by diluting 1.0 μl ^33P-ATP [10 mCi/ml] into 200 μl of a 50 μM stock of unlabeled ATP) • 4) 10 μl appropriate solvent control dilution or inhibitor dilution • 5) 10 μl of a 70 nM stock of PKA catalytic subunit (UBI catalog #14-114) diluted in 0.5 mg/ml BSA
The final assay concentrations were 40 mM Tris pH 7.5, 20 mM MgCl2, 1 mM 2-mercaptoethanol, 0.1 mM EDTA, 10 μM Kemptide, 10 μM ^33P-ATP, 14 nM PKA and 0.1 mg/ml BSA.
Assays were assembled in 96 deep-well assay plates. Components #3 and #4 were premixed and in a separate tube, a mixture containing equal volumes of components #1, #2, and #5 was prepared. The assay reaction was initiated by adding 30 μl of the components #1, #2, and #5 mixture to wells containing ^33P-ATP and inhibitor. The liquid in the assay wells was mixed and the assay reactions incubated for 20 minutes at room temperature. […]
The enzyme reaction product (phosphorylated Kemptide) was quantitated using p81 phosphocellulose 96 well filter plates (Millipore). […] 30 μl scintillation fluid was added to each well and the filters counted on a TopCount (Packard).

T3 sequence (Q9Y243 whole entry): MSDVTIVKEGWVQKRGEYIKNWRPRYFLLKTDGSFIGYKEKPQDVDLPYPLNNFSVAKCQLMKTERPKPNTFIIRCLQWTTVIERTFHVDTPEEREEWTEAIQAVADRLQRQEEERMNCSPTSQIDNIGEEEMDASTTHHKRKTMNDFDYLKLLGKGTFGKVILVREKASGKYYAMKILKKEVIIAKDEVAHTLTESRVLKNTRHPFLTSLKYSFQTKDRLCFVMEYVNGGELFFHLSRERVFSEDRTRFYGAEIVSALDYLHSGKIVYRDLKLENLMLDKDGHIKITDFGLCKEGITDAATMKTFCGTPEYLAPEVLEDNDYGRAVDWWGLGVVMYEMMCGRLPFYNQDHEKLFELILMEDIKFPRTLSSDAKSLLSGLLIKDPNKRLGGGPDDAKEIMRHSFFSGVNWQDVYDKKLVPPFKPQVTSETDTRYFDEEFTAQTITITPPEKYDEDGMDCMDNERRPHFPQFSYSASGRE
T2 sequence (P31751 whole entry): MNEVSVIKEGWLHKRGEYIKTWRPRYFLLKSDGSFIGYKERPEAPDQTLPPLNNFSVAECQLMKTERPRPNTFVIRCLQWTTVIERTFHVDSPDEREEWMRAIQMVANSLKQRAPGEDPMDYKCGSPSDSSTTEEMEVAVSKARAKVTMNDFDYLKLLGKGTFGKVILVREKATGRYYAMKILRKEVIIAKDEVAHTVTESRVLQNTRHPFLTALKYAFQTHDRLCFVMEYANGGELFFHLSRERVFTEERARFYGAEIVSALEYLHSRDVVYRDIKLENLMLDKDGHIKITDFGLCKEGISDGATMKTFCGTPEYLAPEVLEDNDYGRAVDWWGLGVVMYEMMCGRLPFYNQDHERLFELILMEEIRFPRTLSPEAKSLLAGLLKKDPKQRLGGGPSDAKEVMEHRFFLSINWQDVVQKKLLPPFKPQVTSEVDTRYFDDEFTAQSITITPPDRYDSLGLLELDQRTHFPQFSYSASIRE
T4 sequence (P31749 whole entry): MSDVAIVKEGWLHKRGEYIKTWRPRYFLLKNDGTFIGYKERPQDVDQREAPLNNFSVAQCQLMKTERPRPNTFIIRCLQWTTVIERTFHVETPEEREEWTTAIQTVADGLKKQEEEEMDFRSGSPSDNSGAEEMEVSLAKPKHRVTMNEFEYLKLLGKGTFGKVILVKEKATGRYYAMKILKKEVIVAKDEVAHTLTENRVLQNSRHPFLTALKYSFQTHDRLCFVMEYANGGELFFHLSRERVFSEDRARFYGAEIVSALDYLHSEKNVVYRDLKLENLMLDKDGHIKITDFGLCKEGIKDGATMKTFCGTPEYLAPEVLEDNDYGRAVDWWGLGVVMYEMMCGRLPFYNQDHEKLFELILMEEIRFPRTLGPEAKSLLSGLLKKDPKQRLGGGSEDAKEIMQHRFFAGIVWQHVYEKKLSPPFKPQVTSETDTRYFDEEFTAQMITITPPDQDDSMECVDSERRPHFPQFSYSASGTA
T1 sequence (P31749 with tags, fused parts or gaps): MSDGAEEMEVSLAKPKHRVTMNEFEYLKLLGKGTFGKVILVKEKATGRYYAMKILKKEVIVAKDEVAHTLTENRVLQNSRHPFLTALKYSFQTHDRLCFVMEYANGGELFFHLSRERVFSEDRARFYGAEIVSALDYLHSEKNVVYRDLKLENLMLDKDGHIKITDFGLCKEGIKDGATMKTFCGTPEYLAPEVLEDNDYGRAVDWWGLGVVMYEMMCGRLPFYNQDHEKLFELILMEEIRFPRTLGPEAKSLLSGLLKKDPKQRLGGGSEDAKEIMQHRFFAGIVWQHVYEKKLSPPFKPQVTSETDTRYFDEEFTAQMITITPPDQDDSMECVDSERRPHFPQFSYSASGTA

Row | SMILES | IC50 (PKC (mix of isoforms)) | IC50 (delta PH-Akt1) | IC50 (Akt2) | IC50 (Akt3) | IC50 (active human Akt1) | IC50 (PKA catalytic subunit)
1 | OCCOc1nn2c(-c3ccccc3)nnc2cc1-c1ccccc1 [Compound 1, 6-(2-Hydroxyethyl)oxy-3,7-diphenyl-[1,2,4]triazolo[4,3-b]pyridazine] | > 40 µM | – | – | – | – | –
2 | OCCCCOc1nn2c(-c3ccccc3)nnc2cc1-c1ccccc1 [Compound 2] | > 40 µM | > 50 µM | > 50 µM | > 50 µM | 4.65 µM | > 40 µM
